Experimental data as given in patent US20230293639A1, “SYSTEMS, DEVICES, COMPOSITIONS, AND METHODS FOR TREATING DIABETES” (Abvance Therapeutics, Inc., priority 2020, published 2023).

Test system: patients with Type 1 diabetes
Test: Liquid meal challenge with IV insulin alone or IV insulin-glucagon co-infusion (4:1)
Assay type: in vivo, human
Conditions: for Requiring IV glucose rescue: subjects of eleven, rescue if plasma glucose dropped to 50 mg/dl
Method: Referring now to FIG. 12, a study protocol conducted by the applicant in human patients with Type 1 diabetes is illustrated, consistent with the present inventive concepts. […] The liquid meal challenge allows a clinically relevant assessment of plasma glucose rise and fall. […] By protocol, if plasma glucose dropped to 50 mg/dl, a variable glucose infusion was applied to maintain the glucose level at approximately 50 mg/dl, to avoid more serious hypoglycemia from occurring.
FIG. 13 illustrates the glucose excursion following the meal challenge for eleven patients (also referred to as “subjects” herein). […] The glucose excursion data is also presented below in Table 1, which compares peak plasma glucose levels and AUCs (area under curve) for the two treatment groups.

insulin
subjects that had to be rescued (7 subjects whose glucose fell below the pre-meal value in the last 30 minutes): 5
average glucose infusion rate (7 subjects whose glucose fell below the pre-meal value, last 30 minutes): 5.9 ± 2.2 mg/kg/min
Time <70 mg/dl (eleven Type 1 diabetes patients): 20 ± 7%
ΔPG 0-120AUC (eleven Type 1 diabetes patients, 0-120 min after liquid meal): 8162 ± 1514 mg·min/dL
ΔPG 0-180AUC (eleven Type 1 diabetes patients, 0-180 min after liquid meal): 10501 ± 3014 mg·min/dL
Peak PG (eleven Type 1 diabetes patients, after liquid meal): 224 ± 18 mg/dL
Fasting PG (eleven Type 1 diabetes patients, before liquid meal): 121 ± 5 mg/dL
sympathetic central nervous system response to hypoglycemia (venous plasma norepinephrine and epinephrine) (four patients): elevations of venous plasma norepinephrine and epinephrine
average glucose infusion rate over the last 30 minutes (in all subjects (eleven-subject comparison)): 3.8 ± 1.6 mg/kg/min
PG nadir (lowest point during insulin-alone arm vs equivalent time point during insulin-glucagon arm): 51 ± 4.0 mg/dL
average plasma glucose nadir (seven subjects with plasma glucose <80 mg/dl in insulin-alone arm, matching time point in insulin-glucagon arm): 50 ± 4 mg/dL
Requiring IV glucose rescue (listed as Insulin-Alone): 5/11
Requiring IV glucose rescue (listed as insulin-alone): Five of eleven
patients rescued with glucose infusions (subset of four patients with more complete hormone analysis): Three out of the four
